Data on 14 molecules can be found in US8129371B2, “Thienopyrimidine and pyrazolopyrimidine compounds and their use as mTOR kinase and PI3 kinase inhibitors” (Wyeth LLC, priority 2007, dated 2012).

The test system of one test is breast line MDA468. Briefly: In vitro cell culture growth assay (MTS), MDA468. It counts as cell-based. The settings on record: Homo sapiens, 72 h, MDA468 cells, three days after drug treatment. In outline: (§1)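 Following a one-day attachment period, cells received inhibitors for 3 days. MTS metabolism by viable cells was quantified at 490 nm absorbance and converted to percent of same-plate vehicle control growth.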

In the next test the target is T1, Human mTOR (FLAG-TOR) (Homo sapiens, UniProt P42345).
T1 construct: FLAG
Briefly: Human mTOR kinase assay with purified enzyme, DELFIA format. It counts as biochemical. In outline:
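Purified FLAG-mTOR in HEPES pH 7.4 buffer with 10 mM MnCl2 was preincubated with inhibitor and reacted 2 h at room temperature with His6-S6K substrate, then stopped with EDTA/EGTA. Phospho-T389 S6K detected by DELFIA with Eu-labelled antibody (40 ng/mL) after plate capture; inhibition computed from signal.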

The next test concerns prostate line LNCap. Briefly: In vitro cell culture growth assay (MTS), LNCap. It counts as cell-based. As to conditions: Homo sapiens, LNCaP, 72 h, LNCap cells, three days after drug treatment. In outline: as §1
In test [1] the target is T2, PI3K (Homo sapiens, UniProt P48736).
T2 construct: PI3 Kinase γ IC50; other: PI3 Kinase γ; other: PI3 Kinase γ isoform, fluorescence polarization
T2 sequence (P48736 whole entry, canonical isoform): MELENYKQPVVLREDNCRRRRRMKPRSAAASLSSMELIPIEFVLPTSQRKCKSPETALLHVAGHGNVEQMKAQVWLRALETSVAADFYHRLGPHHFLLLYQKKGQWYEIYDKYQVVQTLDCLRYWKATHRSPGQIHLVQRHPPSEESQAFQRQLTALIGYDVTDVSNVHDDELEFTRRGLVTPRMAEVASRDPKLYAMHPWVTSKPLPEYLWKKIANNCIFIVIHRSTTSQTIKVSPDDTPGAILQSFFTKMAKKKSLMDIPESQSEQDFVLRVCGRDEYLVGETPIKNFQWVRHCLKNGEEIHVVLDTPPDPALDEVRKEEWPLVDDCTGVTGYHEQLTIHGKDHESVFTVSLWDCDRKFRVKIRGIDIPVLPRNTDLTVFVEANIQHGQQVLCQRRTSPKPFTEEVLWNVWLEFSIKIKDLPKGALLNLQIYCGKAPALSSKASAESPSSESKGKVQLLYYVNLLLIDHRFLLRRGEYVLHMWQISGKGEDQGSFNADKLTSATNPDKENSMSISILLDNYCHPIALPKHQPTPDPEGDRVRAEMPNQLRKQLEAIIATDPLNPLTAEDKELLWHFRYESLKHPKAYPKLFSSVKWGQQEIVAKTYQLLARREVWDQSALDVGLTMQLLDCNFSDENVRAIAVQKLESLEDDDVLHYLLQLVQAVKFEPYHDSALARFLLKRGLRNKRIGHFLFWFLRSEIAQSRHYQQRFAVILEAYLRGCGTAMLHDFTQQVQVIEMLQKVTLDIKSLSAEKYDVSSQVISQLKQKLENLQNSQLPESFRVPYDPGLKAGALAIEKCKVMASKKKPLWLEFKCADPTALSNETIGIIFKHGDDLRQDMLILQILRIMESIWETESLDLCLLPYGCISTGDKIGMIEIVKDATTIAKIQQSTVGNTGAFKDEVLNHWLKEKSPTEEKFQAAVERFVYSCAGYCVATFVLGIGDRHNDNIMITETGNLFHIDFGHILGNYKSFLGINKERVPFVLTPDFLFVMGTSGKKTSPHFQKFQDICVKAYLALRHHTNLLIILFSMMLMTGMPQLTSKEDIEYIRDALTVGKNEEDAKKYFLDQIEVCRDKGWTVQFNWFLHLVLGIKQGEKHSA
Briefly: Fluorescence polarization assay for PI3K. It counts as biochemical. The settings on record: read-out: PI3 Kinase γ IC50. In outline:
(§2)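 PI3K was preincubated with compound (final DMSO 1%), and the reaction was started with PIP2/ATP substrate and run 30–60 min. It was stopped with a detector mix giving 10 nM red probe and 70 nM GST-GRP.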
(In fluorescence polarisation assays a small probe gives low polarisation when free and higher when bound to something large.)

Test [2] has as its target T3, PI3K (Homo sapiens, UniProt P42336).
T3 construct: PI3 Kinase α IC50; other: PI3 Kinase α; other: PI3 Kinase α isoform, fluorescence polarization
Briefly: Fluorescence polarization assay for PI3K. It counts as biochemical. As to conditions: read-out: PI3 Kinase α IC50. In outline:
as §2

The mark [3] stands for this setting: purified human mTOR enzyme, DELFIA format.
Where [4] appears, read: PI3 Kinase γ isoform, fluorescence polarization.
Setting [5] is: PI3 Kinase α isoform, fluorescence polarization.

Where two headings read alike, the source gives them in different places. A value given as a limit tells only on which side of the number the result lay.

T3 sequence (P42336 whole entry, canonical isoform): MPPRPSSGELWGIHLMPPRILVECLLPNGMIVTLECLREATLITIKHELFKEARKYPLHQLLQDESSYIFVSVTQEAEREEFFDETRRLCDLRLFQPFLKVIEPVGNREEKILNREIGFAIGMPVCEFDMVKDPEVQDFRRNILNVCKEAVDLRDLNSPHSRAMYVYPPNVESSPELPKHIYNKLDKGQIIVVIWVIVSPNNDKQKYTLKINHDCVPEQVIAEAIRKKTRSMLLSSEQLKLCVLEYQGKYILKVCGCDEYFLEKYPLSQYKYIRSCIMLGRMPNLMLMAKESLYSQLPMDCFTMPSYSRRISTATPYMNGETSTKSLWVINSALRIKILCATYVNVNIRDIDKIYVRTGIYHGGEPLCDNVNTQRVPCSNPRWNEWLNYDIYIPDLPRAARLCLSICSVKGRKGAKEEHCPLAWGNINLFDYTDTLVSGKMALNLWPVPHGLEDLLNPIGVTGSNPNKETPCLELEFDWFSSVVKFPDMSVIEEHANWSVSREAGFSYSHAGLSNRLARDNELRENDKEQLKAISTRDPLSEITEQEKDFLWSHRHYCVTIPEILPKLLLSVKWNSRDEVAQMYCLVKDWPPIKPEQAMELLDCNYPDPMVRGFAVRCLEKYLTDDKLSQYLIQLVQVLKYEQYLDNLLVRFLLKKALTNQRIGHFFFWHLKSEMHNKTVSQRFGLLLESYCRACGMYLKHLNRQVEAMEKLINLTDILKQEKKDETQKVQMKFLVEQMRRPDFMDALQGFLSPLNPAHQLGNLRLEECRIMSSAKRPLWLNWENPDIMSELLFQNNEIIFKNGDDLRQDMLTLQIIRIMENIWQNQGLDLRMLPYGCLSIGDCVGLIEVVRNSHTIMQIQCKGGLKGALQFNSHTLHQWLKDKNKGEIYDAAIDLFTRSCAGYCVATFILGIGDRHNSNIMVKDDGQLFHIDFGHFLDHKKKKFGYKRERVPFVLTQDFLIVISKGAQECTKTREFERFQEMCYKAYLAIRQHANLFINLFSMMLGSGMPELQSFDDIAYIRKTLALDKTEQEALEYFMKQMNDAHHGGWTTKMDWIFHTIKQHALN

A word on the IC50: it is the point on the concentration scale where inhibition reaches its midpoint. For `O=C(Nc1ccc(-c2nc(N3C[C@@H]4C[C@H]3CO4)c3cnn(CC(F)(F)F)c3n2)cc1)Nc1ccc(N2CCOCC2)cc1` [Example 298, 1-(4-morpholin-4-ylphenyl)-3-(4-{4-[(1S,4S)-2-oxa-5-azabicyclo[2.2.1]hept-5-yl]-1-(2,2,2-trifluoroethyl)-1H-pyrazolo[3,4-d]pyrimidin-6-yl}phenyl)urea], the IC50 in the test with breast line MDA468 is 1 nM; against Human mTOR (FLAG-TOR) (setting [3]) it was 1.25 nM; in the test with prostate line LNCap, below 1 nM; at PI3K [1] (setting [4]), 10400 nM; at PI3K [2] (setting [5]), 1220 nM.
As for `CCOC(=O)Nc1ccc(-c2nc(N3CC4CCC(C3)O4)c3cnn(CCO)c3n2)cc1` [Example 208, ethyl {4-[1-(2-hydroxyethyl)-4-(8-oxa-3-azabicyclo[3.2.1]oct-3-yl)-1H-pyrazolo[3,4-d]pyrimidin-6-yl]phenyl}carbamate], the half-maximal inhibitory concentration (IC50) was 900 nM in the test with breast line MDA468; 8.2 nM on Human mTOR (FLAG-TOR); 220 nM with prostate line LNCap; above 10000 nM on PI3K [1] (PI3 Kinase γ); 1860 nM at PI3K [2] (PI3 Kinase α).
As for `CCn1ncc2c(N3CC4CCC(C3)O4)nc(-c3ccc(NC(=O)Nc4ccc(C(=O)NN(C)C)cc4)cc3)nc21` [Example 289, 1-{4-[(2,2-dimethylhydrazino)carbonyl]phenyl}-3-{4-[1-ethyl-4-(8-oxa-3-azabicyclo[3.2.1]oct-3-yl)-1H-pyrazolo[3,4-d]pyrimidin-6-yl]phenyl}urea], the IC50 in the test on breast line MDA468 was below 1 nM; on Human mTOR (FLAG-TOR), 0.33 nM; in the test on prostate line LNCap, below 1 nM; at PI3K [1] (PI3 Kinase γ), 706 nM; at PI3K [2] (PI3 Kinase α) it was 109 nM.
Take `CNC(=O)Nc1ccc(-c2nc(N3CC4COC(C3)O4)c3cnn(C)c3n2)cc1` (stereo not shown) [Example 392, 1-{4-[4-(6,8-dioxa-3-azabicyclo[3.2.1]oct-3-yl)-1-methyl-1H-pyrazolo[3,4-d]pyrimidin-6-yl]phenyl}-3-methylurea]: the IC50 in the test on breast line MDA468 was determined as 4800 nM; on Human mTOR (FLAG-TOR) (setting [3]) it was 39.5 nM; with prostate line LNCap it was 1200 nM; on PI3K [1] (setting [4]) it was 11000 nM; at PI3K [2] (setting [5]) it was 582 nM.
On to `O=C(Nc1ccc(-c2nc(N3C[C@@H]4C[C@H]3CO4)c3cnn(CC(F)(F)F)c3n2)cc1)Nc1cccnc1` [Example 293, 1-(4-{4-[(1S,4S)-2-oxa-5-azabicyclo[2.2.1]hept-5-yl]-1-(2,2,2-trifluoroethyl)-1H-pyrazolo[3,4-d]pyrimidin-6-yl}phenyl)-3-pyridin-3-ylurea], for which the IC50 in the test with breast line MDA468 was 50 nM; on Human mTOR (FLAG-TOR), 1.25 nM; in the test on prostate line LNCap it was 17 nM; on PI3K [1] (PI3 Kinase γ), above 10000 nM; on PI3K [2] (PI3 Kinase α), 602 nM.
As for `CC(C)(C)OC(=O)N1CC2CN(c3nc(-c4ccc(NC(=O)Nc5ccncc5)cc4)nc4c3cnn4CC(F)(F)F)CC(C1)O2` [Example 340, tert-butyl 7-[6-{4-[(pyridin-4-ylcarbamoyl)amino]phenyl}-1-(2,2,2-trifluoroethyl)-1H-pyrazolo[3,4-d]pyrimidin-4-yl]-9-oxa-3,7-diazabicyclo[3.3.1]nonane-3-carboxylate], the IC50 in the test on breast line MDA468 stood at 5200 nM; on Human mTOR (FLAG-TOR) (setting [3]), 305 nM; in the test on prostate line LNCap, 5200 nM; at PI3K [1] (setting [4]), 5760 nM; at PI3K [2] (setting [5]), 5080 nM.
`CN1CCN(c2ccc(NC(=O)Nc3ccc(-c4nc(N5CC6CCC(C5)O6)c5cnn(C6CCC7(CC6)OCCO7)c5n4)cc3)cc2)CC1` [Example 135, 1-{4-[1-(1,4-dioxaspiro[4.5]dec-8-yl)-4-(8-oxa-3-azabicyclo[3.2.1]oct-3-yl)-1H-pyrazolo[3,4-d]pyrimidin-6-yl]phenyl}-3-[4-(4-methylpiperazin-1-yl)phenyl]urea]: the IC50 with breast line MDA468 amounted to 1 nM; against Human mTOR (FLAG-TOR), 0.268 nM; in the test on prostate line LNCap it was 1 nM; at PI3K [1] (PI3 Kinase γ), 1710 nM; on PI3K [2] (PI3 Kinase α) it was 146 nM.
In the case of `CNC(=O)Nc1ccc(-c2nc(N3CC4CCC(C3)O4)c3cnn(C4CCC5(CC4)OCCCO5)c3n2)cc1` [Example 151, 1-{4-[1-(1,5-dioxaspiro[5.5]undec-9-yl)-4-(8-oxa-3-azabicyclo[3.2.1]oct-3-yl)-1H-pyrazolo[3,4-d]pyrimidin-6-yl]phenyl}-3-methylurea], the half-maximal inhibitory concentration (IC50) is 130 nM with breast line MDA468; 1.19 nM against Human mTOR (FLAG-TOR); 8 nM in the test with prostate line LNCap; above 10000 nM on PI3K [1] (PI3 Kinase γ); 363 nM at PI3K [2] (PI3 Kinase α).
On the same counts, the results for `CCNC(=O)Nc1ccc(-c2nc(N3CC4CCC(C3)O4)c3cnn(Cc4ccccc4)c3n2)cc1` [Example 78, 1-{4-[1-benzyl-4-(8-oxa-3-azabicyclo[3.2.1]oct-3-yl)-1H-pyrazolo[3,4-d]pyrimidin-6-yl]phenyl}-3-ethylurea] are 1050 nM, 2.6 nM, 170 nM, above 10000 nM and above 10000 nM.
Regarding `CCn1ncc2c(N3CC4CCC(C3)O4)nc(-c3ccc(NC(=O)OC)cc3)nc21` [Example 375, methyl {4-[1-ethyl-4-(8-oxa-3-azabicyclo[3.2.1]oct-3-yl)-1H-pyrazolo[3,4-d]pyrimidin-6-yl]phenyl}carbamate], the IC50 in the test on breast line MDA468 was 1700 nM; at Human mTOR (FLAG-TOR) (setting [3]) it was 15.5 nM; in the test on prostate line LNCap it was 700 nM; on PI3K [1] (setting [4]) it was above 10000 nM; at PI3K [2] (setting [5]), 4790 nM.
As to `c1cncc(CN2CCC(n3ncc4c(N5CC6CCC(C5)O6)nc(-c5ccc6[nH]ccc6c5)nc43)CC2)c1` [Example 394, 6-(1H-indol-5-yl)-4-(8-oxa-3-azabicyclo[3.2.1]oct-3-yl)-1-[1-(pyridin-3-ylmethyl)piperidin-4-yl]-1H-pyrazolo[3,4-d]pyrimidine], the 50% inhibitory concentration (IC50) with breast line MDA468 was 2000 nM; against Human mTOR (FLAG-TOR) (setting [3]), 14.5 nM; in the test on prostate line LNCap, 320 nM; on PI3K [1] (setting [4]), 9500 nM; on PI3K [2] (setting [5]), 2920 nM.
Turning to `CCOC(=O)N1CCC(n2ncc3c(N4CC5CCC(C4)O5)nc(-c4ccc(NC(=O)NC5CCNCC5)cc4)nc32)CC1` [Example 103, ethyl 4-[4-(8-oxa-3-azabicyclo[3.2.1]oct-3-yl)-6-{4-[(piperidin-4-ylcarbamoyl)amino]phenyl}-1H-pyrazolo[3,4-d]pyrimidin-1-yl]piperidine-1-carboxylate], the half-maximal inhibitory concentration (IC50) in the test on breast line MDA468 was 11000 nM; against Human mTOR (FLAG-TOR), 6.8 nM; in the test with prostate line LNCap, 5000 nM; on PI3K [1] (PI3 Kinase γ), 1100 nM; on PI3K [2] (PI3 Kinase α) it was 874 nM.
On the same counts, the results for `CC(C)C(=O)N1CCC(n2ncc3c(N4CC5CCC(C4)O5)nc(-c4ccc(NC(=O)NCCF)cc4)nc32)CC1` [Example 85, 1-(2-fluoroethyl)-3-{4-[1-(1-isobutyrylpiperidin-4-yl)-4-(8-oxa-3-azabicyclo[3.2.1]oct-3-yl)-1H-pyrazolo[3,4-d]pyrimidin-6-yl]phenyl}urea] are 300 nM, 0.47 nM, 90 nM, above 10000 nM and 2640 nM.
`CCOC(=O)N1CCC(n2ncc3c(N4CC5CCC(C4)O5)nc(-c4ccc(NC(=O)NC5CCN(C)CC5)cc4)nc32)CC1` [Example 36, ethyl 4-[6-(4-{[(1-methylpiperidin-4-yl)carbamoyl]amino}phenyl)-4-(8-oxa-3-azabicyclo[3.2.1]oct-3-yl)-1H-pyrazolo[3,4-d]pyrimidin-1-yl]piperidine-1-carboxylate]: the IC50 with breast line MDA468 turned out to be 4500 nM; against Human mTOR (FLAG-TOR), 26 nM; in the test with prostate line LNCap it was 1200 nM; on PI3K [1] (PI3 Kinase γ) it was 7620 nM; on PI3K [2] (PI3 Kinase α), 6210 nM.
